The record followed here is patent US20120010075A1 (priority 2009, published 2012).

Data set [1] relates to Phytophthora infestans. The class given is in vivo, Phytophthora infestans on tomato. The settings on record: applied 24 h before inoculation, assessed 7 days after inoculation.
Data set [2] has as its system Leptosphaeria nodorum (LEPTNO). The data set is described as follows: In vitro fungitoxicity of hydrazones with and without copper towards Leptosphaeria nodorum (Example 26). The class given is cell-based. The settings on record: 72 h at 25° C.; for inhibition of growth at 0.05 µg/mL: Parastagonospora nodorum, 72 h, copper-minus medium, read-out: LEPTNO % Inhn. Minus Copper Observed.

Setting [3] is: hydrazone 50 ppm with 50 μM CuCl2.2H2O, tomato late blight.
[4] abbreviates: test compound Concn. 0.05 μg/mL.
Where [5] appears, read: copper-plus medium (CuCl2 10 μM), test compound Concn. 0.05 μg/mL.
The mark [6] stands for this setting: hydrazone 50 ppm + 50 μM CuCl2.2H2O, tomato.
Setting [7] is: compound 0.05 μg/mL, copper-plus medium (CuCl2.2H2O).

Read-outs that look alike come from different tables or passages of the source.

For `CC/C(=N\NC(=O)c1ccccc1)c1cc(Cl)cc(Cl)c1O` [Example 590], the melting point (commonly the temperature of the solid-liquid transition) was in the range of 214 to 215 °C. In addition, the “TLB % Control” value in data set [1] (setting [3]) is recorded as 88.0%. Also, the inhibition of growth at 0.05 µg/mL in data set [2] (setting [4]) amounted to 10%. Also, the “LEPTNO % Inhn. Plus Copper Observed” value in data set [2] (setting [5]) is reported as 98.6%.

In turn, `C/C(=N\NC(=O)c1ccc(Br)cc1)c1cc(C(F)(F)F)ccc1O` [Example 535] yielded a melting point of 256 to 259 °C. Moreover, the “TLB % Control” value in data set [1] (setting [3]) amounted to 56.0%. The inhibition of growth at 0.05 µg/mL in data set [2] (setting [4]) was 10.1%. In data set [2] (setting [5]), the “LEPTNO % Inhn. Plus Copper Observed” value is recorded as 97.7%.

Regarding `C/C(=N\NC(=O)c1ccc(C(F)(F)F)cc1)c1cc(Cl)cc(Cl)c1O` [Example 470], the melting point lay in the range of 237 to 238 °C. The “TLB % Control” value in data set [1] (setting [3]) worked out at 93.0%. Moreover, the inhibition of growth at 0.05 µg/mL in data set [2] (setting [4]) is 4%. For the same molecule, the “LEPTNO % Inhn. Plus Copper Observed” value in data set [2] (setting [5]) is reported as 98.0%.

In turn, `C/C(=N\NC(=O)c1ccccc1Cl)c1ccc(Cl)cc1O` [Example 255] registered a melting point of 183 to 184 °C. Moreover, in data set [1] (setting [6]), the “TLB % Control” value came out at 28.0%. For the same molecule, the inhibition of growth at 0.05 µg/mL in data set [2] (compound 0.05 μg/mL) was determined as 3.6%. Further, in data set [2] (setting [7]), the “LEPTNO % Inhn. Plus Copper Observed” value is recorded as 98.2%.

Take `Cc1cc(O)c(/C=N/NC(=O)c2ccccc2)cc1Cl` [Example 239]: the melting point lay in the range of 206 to 208 °C. In data set [1] (setting [6]), the “TLB % Control” value is 66.1%. Also, the inhibition of growth at 0.05 µg/mL in data set [2] (compound 0.05 μg/mL) is 0.1%. For the same molecule, in data set [2] (setting [7]), the “LEPTNO % Inhn. Plus Copper Observed” value is given as 97.8%.

As for `C/C(=N\NC(=O)c1ccccc1C)c1cc(C)ccc1O` [Example 312], the melting point is 154 to 156 °C. For the same molecule, the “TLB % Control” value in data set [1] (setting [3]) came to 1.4%. In addition, in data set [2] (setting [4]), the inhibition of growth at 0.05 µg/mL stood at 3.8%. Besides, in data set [2] (setting [5]), the “LEPTNO % Inhn. Plus Copper Observed” value came to 97.8%.

`COc1ccc(O)c(C(=O)N/N=C(\C)c2cc(Cl)cc(Cl)c2O)c1` [Example 478] gave a melting point of 327 to 331 °C. Moreover, the “TLB % Control” value in data set [1] (setting [3]) came to 65.0%. Besides, the inhibition of growth at 0.05 µg/mL in data set [2] (setting [4]) was 0.7%. In addition, the “LEPTNO % Inhn. Plus Copper Observed” value in data set [2] (setting [5]) is listed as 94.7%.

As for `C/C(=N\NC(=O)c1ccccc1Cl)c1cc(Cl)ccc1O` [Example 508], the melting point was 210 to 217 °C. Moreover, in data set [1] (setting [3]), the “TLB % Control” value turned out to be 92.0%. For the same molecule, the inhibition of growth at 0.05 µg/mL in data set [2] (setting [4]) is 9.4%. Besides, the “LEPTNO % Inhn. Plus Copper Observed” value in data set [2] (setting [5]) turned out to be 97.1%.

In the case of `C/C(=N\NC(=O)c1ccc(C)cc1)c1cc(Br)cc(Br)c1O` [Example 542], the melting point lay within 258 to 259 °C. Further, the “TLB % Control” value in data set [1] (setting [3]) amounted to 100.0%. The inhibition of growth at 0.05 µg/mL in data set [2] (setting [4]) is 0%. For the same molecule, the “LEPTNO % Inhn. Plus Copper Observed” value in data set [2] (setting [5]) is 95.8%.

Consider `Cc1cccc(C(=O)N/N=C/c2cc(Cl)ccc2O)c1` [Example 419], for which the melting point lay within 188 to 196 °C. For the same molecule, in data set [1] (setting [3]), the “TLB % Control” value stood at 90.0%. Besides, the inhibition of growth at 0.05 µg/mL in data set [2] (setting [4]) amounted to 3.2%. In addition, the “LEPTNO % Inhn. Plus Copper Observed” value in data set [2] (setting [5]) is on record as 94.9%.

`O=C(N/N=C/c1cc(Cl)ccc1O)c1ccccc1C(F)(F)F` [Example 422]: the melting point lay in the range of 154 to 164 °C. Also, the “TLB % Control” value in data set [1] (setting [3]) was determined as 90.0%. For the same molecule, the inhibition of growth at 0.05 µg/mL in data set [2] (setting [4]) stood at 0%. The “LEPTNO % Inhn. Plus Copper Observed” value in data set [2] (setting [5]) came to 95.5%.

Molecule `C/C(=N\NC(=O)c1ccccc1Br)c1cc(F)cc(F)c1O` [Example 582] returned a melting point of 190 to 195 °C. Besides, the “TLB % Control” value in data set [1] (setting [3]) was determined as 94.0%. The inhibition of growth at 0.05 µg/mL in data set [2] (setting [4]) was 12.2%. In data set [2] (setting [5]), the “LEPTNO % Inhn. Plus Copper Observed” value came to 97.8%.

As for `C/C(=N\NC(=O)c1cccc(Cl)c1)c1cc(C)ccc1O` [Example 316], the melting point was in the range of 231 to 241 °C. Moreover, the “TLB % Control” value in data set [1] (setting [3]) turned out to be 14.0%. For the same molecule, the inhibition of growth at 0.05 µg/mL in data set [2] (setting [4]) was found to be 4.5%. Moreover, the “LEPTNO % Inhn. Plus Copper Observed” value in data set [2] (setting [5]) was found to be 97.1%.

For the molecule `O=C(N/N=C(/c1cc(Cl)cc(Cl)c1O)C(F)(F)F)c1ccccc1` [Example 587], the melting point lay within 195 to 196 °C. The “TLB % Control” value in data set [1] (setting [3]) was determined as 2.4%. For the same molecule, the inhibition of growth at 0.05 µg/mL in data set [2] (setting [4]) came out at 6.2%. Also, the “LEPTNO % Inhn. Plus Copper Observed” value in data set [2] (setting [5]) is 96.6%.

As to `O=C(N/N=C/c1cc(Br)ccc1O)c1ccc(C(F)(F)F)cc1` [Example 184], the melting point lay in the range of 219 to 222 °C. Besides, in data set [1] (setting [6]), the “TLB % Control” value came out at 70.9%. Besides, in data set [2] (compound 0.05 μg/mL), the inhibition of growth at 0.05 µg/mL worked out at 7.1%. Also, the “LEPTNO % Inhn. Plus Copper Observed” value in data set [2] (setting [7]) is recorded as 97.0%.

Consider `Cc1cccc(C(=O)N/N=C/c2cc(C(F)(F)F)ccc2O)c1` [Example 435], for which the melting point was 192 to 194 °C. Further, the “TLB % Control” value in data set [1] (setting [3]) is on record as 100.0%. In data set [2] (setting [4]), the inhibition of growth at 0.05 µg/mL stood at 4.7%. The “LEPTNO % Inhn. Plus Copper Observed” value in data set [2] (setting [5]) is on record as 97.2%.

In turn, `O=C(N/N=C/c1cccc(C(F)(F)F)c1O)c1ccc([N+](=O)[O-])cc1` [Example 350] showed a melting point of 253 to 255 °C. The “TLB % Control” value in data set [1] (setting [3]) amounted to 97.0%. The inhibition of growth at 0.05 µg/mL in data set [2] (setting [4]) is 11.3%. Moreover, the “LEPTNO % Inhn. Plus Copper Observed” value in data set [2] (setting [5]) came to 94.9%.

`COc1cccc(C(=O)N/N=C(\C)c2cc(Cl)cc(Cl)c2O)c1O` [Example 484] yielded a melting point of 258 to 259 °C. The “TLB % Control” value in data set [1] (setting [3]) is 88.0%. For the same molecule, the inhibition of growth at 0.05 µg/mL in data set [2] (setting [4]) came out at 12.6%. Besides, the “LEPTNO % Inhn. Plus Copper Observed” value in data set [2] (setting [5]) came out at 93.2%.

In turn, `O=C(N/N=C/c1c(O)ccc(Cl)c1Cl)c1ccccc1` [Example 241] yielded a melting point of 273 to 274 °C. For the same molecule, in data set [1] (setting [6]), the “TLB % Control” value turned out to be 62.7%. Further, in data set [2] (compound 0.05 μg/mL), the inhibition of growth at 0.05 µg/mL is 0.5%. The “LEPTNO % Inhn. Plus Copper Observed” value in data set [2] (setting [7]) was determined as 97.0%.

As for `Cc1ccc(C(=O)N/N=C/c2c(Cl)ccc(Cl)c2O)c(O)c1` [Example 374], the melting point is 248 to 254 °C. In addition, the “TLB % Control” value in data set [1] (setting [3]) stood at 98.0%. For the same molecule, the inhibition of growth at 0.05 µg/mL in data set [2] (setting [4]) amounted to 11.1%. Further, the “LEPTNO % Inhn. Plus Copper Observed” value in data set [2] (setting [5]) amounted to 98.2%.

The molecule `C/C(=N\NC(=O)c1cccc(C)c1)c1ccc(Cl)cc1O` [Example 253] showed a melting point of 210 to 211 °C. In addition, in data set [1] (setting [6]), the “TLB % Control” value amounted to 14.0%. In addition, the inhibition of growth at 0.05 µg/mL in data set [2] (compound 0.05 μg/mL) is 4.9%. Moreover, the “LEPTNO % Inhn. Plus Copper Observed” value in data set [2] (setting [7]) came out at 98.0%.

`COc1ccc(C(=O)N/N=C(\C)c2cc(Br)ccc2O)cc1` [Example 516] registered a melting point of 202 to 252 °C. Besides, in data set [1] (setting [3]), the “TLB % Control” value is given as 59.0%. Moreover, the inhibition of growth at 0.05 µg/mL in data set [2] (setting [4]) stood at 0%. Also, in data set [2] (setting [5]), the “LEPTNO % Inhn. Plus Copper Observed” value is 97.9%.

`O=C(N/N=C/c1cc(Cl)cc(Cl)c1O)c1cccc(C(F)(F)F)c1` [Example 249] registered a melting point of 165 to 169 °C. Moreover, the “TLB % Control” value in data set [1] (setting [6]) came out at 100.0%. Besides, the inhibition of growth at 0.05 µg/mL in data set [2] (compound 0.05 μg/mL) was determined as 27.8%. Further, in data set [2] (setting [7]), the “LEPTNO % Inhn. Plus Copper Observed” value is listed as 95.8%.

Take `C/C(=N\NC(=O)c1ccc(C)cc1)c1cc(F)cc(F)c1O` [Example 575]: the melting point fell in the range of 220 to 222 °C. Moreover, the “TLB % Control” value in data set [1] (setting [3]) stood at 100.0%. For the same molecule, in data set [2] (setting [4]), the inhibition of growth at 0.05 µg/mL was 0%. The “LEPTNO % Inhn. Plus Copper Observed” value in data set [2] (setting [5]) is reported as 98.1%.

On to `O=C(N/N=C/c1cc([N+](=O)[O-])cc(Br)c1O)c1cccc(Cl)c1` [Example 201], for which the melting point lay within 276 to 280 °C. In addition, the “TLB % Control” value in data set [1] (setting [6]) was found to be 50.9%. Also, in data set [2] (compound 0.05 μg/mL), the inhibition of growth at 0.05 µg/mL is 4%. Besides, in data set [2] (setting [7]), the “LEPTNO % Inhn. Plus Copper Observed” value is listed as 96.0%.
